Columns and labels:
Wzb = target: T1, Wzb (Lacticaseibacillus rhamnosus, UniProt Q58Z13); test: p-nitrophenol release, absorbance […] nm; format: biochemical; conditions: 5 mM pNPP, 0.25 µM enzyme, 1.0 mM Co2+ (also Ni2+ or Mn2+), 92 mM Tris-HCl pH 7.5, 75 °C, 15 min
T1 sequence (Q58Z13 1-254): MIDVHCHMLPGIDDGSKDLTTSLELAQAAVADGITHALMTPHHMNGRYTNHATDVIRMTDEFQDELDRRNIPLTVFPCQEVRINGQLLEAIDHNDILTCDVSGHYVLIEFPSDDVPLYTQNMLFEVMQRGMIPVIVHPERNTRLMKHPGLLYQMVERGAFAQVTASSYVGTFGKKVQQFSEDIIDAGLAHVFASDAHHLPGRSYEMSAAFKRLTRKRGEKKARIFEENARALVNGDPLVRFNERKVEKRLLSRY

Cap8C = Cap8C (Staphylococcus aureus, UniProt P72369); test: p-nitrophenol release, absorbance […] nm; format: biochemical; conditions: 5 mM pNPP, 0.25 µM enzyme, 1.0 mM Co2+ (also Ni2+ or Mn2+), 92 mM Tris-HCl pH 7.5, 75 °C, 15 min
Sequence of Cap8C (P72369 entry or part of it): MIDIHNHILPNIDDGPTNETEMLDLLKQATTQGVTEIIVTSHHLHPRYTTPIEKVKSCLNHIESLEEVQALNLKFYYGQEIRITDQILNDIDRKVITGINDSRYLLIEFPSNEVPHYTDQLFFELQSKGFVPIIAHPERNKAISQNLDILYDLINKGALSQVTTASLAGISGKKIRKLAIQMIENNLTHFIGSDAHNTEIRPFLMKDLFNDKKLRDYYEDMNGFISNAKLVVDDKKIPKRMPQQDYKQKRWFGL

O=[N+]([O-])c1ccc(OP(=O)(O)O)cc1 [p-nitrophenylphosphate]
p-nitrophenol release, absorbance 405 nm (Wzb): Lactobacillus rhamnosus Wzb proteins were established to have phosphatase activity using pNPP as substrate
p-nitrophenol release, absorbance 405 nm (Cap8C): Cap8C and Lactobacillus rhamnosus Wzb proteins were established to have phosphatase activity using pNPP
